Common to all, as to format: in vivo, BALB/c mice
Test [1] has as its system OVA-sensitized/challenged mouse model. Nature of the test: Lung histology, H&E inflammation score. The conditions noted are these: lung tissue, score 0-3; 30 mg/kg PO. As for the experimental part: In order to confirm the anti-asthmatic effect of test samples prepared in Examples, following histopathological analysis on broncho-alveolar tissue was performed by the method disclosed in the literature (Kwak Y G. et al., J. Clin. Invest., 111, pp 1083-1092, 2003).
The delivered lung tissues of BALB/c mice which had not perform broncho-alveolar lavage was fixed for 24 h in 10% neutral-buffered formalin. After being embedded in paraffin, then made into 4-μm thickness sections, the tissue was stained with H&E solution (hematoxylin; Sigma MHS-16 and eosin, Sigma HT110-I-32) and the inflammation score of five regions in each section chosen in a randomized manner, was determined. (Inflammation score 0: inflamed cells is not found in bronchial surrounding, Inflammation score 1: inflamed cells is sporadically found in bronchial surrounding, Inflammation score 2: thin inflamed cell layer is found in most of bronchial surrounding, Inflammation score 3: thick inflamed cell layer is found in most of bronchial surrounding).

Test [2] shares this test system. As to the kind of experiment: Preliminary determination of total serum IgE level in OVA-sensitized/challenged mouse model. The conditions noted are these: 30 mg/kg PO 1 h prior to OVA inhalation. As for the experimental part:
In order to found the purified extract showing more pharmacologically potent activity than the crude extract prepared in comparative Example, following preliminary test was performed by the method disclosed in the literature (Elias, J. A. et al., J. Clin. Invest., 111, pp 297-297, 2003).
1-1. Animal Sensitization and Airway Challenge
(§1) Specific pathogen-free female BALB/c mice (about 20 g), aged 6 weeks, which were routinely screened serologically for relevant respiratory pathogens, were purchased from ORIENT Co. (Seoul, Korea) and acclimated with the experimental environment for 1 week.
(§2) Briefly, mice were sensitized by intraperitoneal injection of 20 μg OVA (Ovalbumin; A5503, Sigma, St. Louis, Mo.), which was emulsified in 2 mg aluminum hydroxide in 200 μl of PBS buffer (pH 7.4), biweekly. The mice were challenged through the airways with OVA (1% in PBS) for 30 min using an ultrasonic nebulizer (NE-U12; Omron Corp., Tokyo, Japan) from the 28th day to 34th day after the initial sensitization. 24 hrs after the antigen treatment, the airway hyperresponsiveness was determined and the mice were sacrificed 48 hrs after the last challenge. The mice were sacrificed with an overdose of pentobarbital (Entobal®, Hanrim Pharm. Co. Ltd.) 24 h after the last challenge, and a tracheotomy was performed. […]

Test [3] shares this test system. As to the kind of experiment: Airway hyperresponsiveness test (Penh, whole body plethysmography, methacholine). The conditions noted are these: 30 mg/kg PO. The procedure: In order to confirm the anti-asthmatic effect of test samples prepared in Examples using by airway hyperresponsiveness test in a OVA-sensitized/challenged mouse model, following test was performed by the method disclosed in the literature (Elias, J. A. et al., J. Clin. Invest., 111, pp 297-297, 2003).
as §1
as §2, with “performed. After […] of physiological saline solution (PBS) was instilled into the lungs, bronchoalveolar lavage fluid (BALF) was obtained by aspiration three times (total 1.5 ml) via tracheal cannulation.” for “performed.”
In order to evaluate the airway hyperresponsiveness of the mice, the airway resistance was determined using by apparatus (One chamber whole body plethymography, OCP3000, All Medicus, Seoul. Korea) and the determined value was statistically calculated by Pehn value (Enhance Pause) reflecting on the degree of airway obstruction. The Penh value was determined for 3 mins by the process of determining the basal value at the eupnea phase and determining the Penh value after inhaling PBS with Ultrasonic nebulizer (NE-U12, IMRON Corp., Tokyo, JAPAN) for 3 mins.
Thereafter, various concentrations of methacholine (A2251, Sigma, St. Louis, Mo.), 12, 25 and 50 mg/ml, were inhaled with increasing concentration to determine the Pehn values. The increase of Penh value was expressed as percentage (%) after the methacholine inhalation and the Penh value of basal line was set to 100%. […]

Test [4] shares this test system. As to the kind of experiment: Level of Th2 cytokines (IL-4, IL-5, IL-13) and IL-1β in BALF (ELISA). The conditions noted are these: 30 mg/kg PO. As for the experimental part:
In order to confirm the inhibition effect of test samples prepared in Examples on the level of Th2 cytokines (IL-4, IL-5 and IL-13) and IL-1β in bronchoalveolar lavage fluid (BALF), following test was performed by the sandwich enzyme immunosorbent assay method disclosed in the literature (Renz H. et al., J. Exp. Med., […], pp 1175-1180, 1993).
The blood serum and bronchoalveolar lavage fluid (BALF) was added to 96-well plates (ELISA plate) coated with cytokine antibody to induce antigen-antibody reaction for 2 hours at room temperature. The level of Th2 cytokines (IL-4, IL-5 and IL-13) and IL-1β in bronchoalveolar lavage fluid (BALF) was determined using by ELISA kit (Biosource Int. CA, USA) specifically reacting with each cytokine according to the manufacture's manual.
A general note: In an ELISA, binding on a coated surface is turned into a signal by an enzyme label.

Test [5] shares this test system. As to the kind of experiment: Level of eosinophil and inflammatory cells in BALF. The conditions noted are these: 30 mg/kg PO. The procedure: In order to confirm the inhibition effect of test samples prepared in Examples on the level of eosinophil and inflammatory cells in bronchoalveolar fluid (BALF), following test was performed by the method disclosed in the literature (Chen M. et al., Immunolgy, pp 376-384, 2011).
The bronchoalveolar lavage fluid (BALF) prepared in Experimental Example 1 was recovered to determine the level of inflammatory cells.
The total inflammatory cell number was assessed by the counting of cells in at least five squares of a hemocytometer after excluding dead cells by staining with trypan blue (Daigle I. et al., Swiss Med Wkly, 131, pp 231-7, 2001). 100 μl of BALF was loaded onto a slide and centrifuged (200×g, 4° C., 10 min) to fix the cells onto the slide using a Cellspin machine (Cyto12.5+clip5, Hanil Science Industrial, Korea). The cells were stained by Diff-Quick® Stain reagents (Sysmex, Cat No. 38721, Switzerland) according to the manufacturer's instructions. Statistical significance was determined by Student's two-tailed t-test for independent means and the critical level for significance was set at P<0.05.

The test system is the same in test [6]. Nature of the test: Goblet cell plasia, PAS staining of lung tissue. The conditions noted are these: ratio of goblet cell in bronchiolar epithelial cell; 30 mg/kg PO. The procedure:
In order to confirm the anti-asthmatic effect of test samples prepared in Examples, following goblet cell plasia analysis on broncho-alveolar tissue was performed by the method disclosed in the literature (Lee K S. et al., FASEB J., 20, pp 455-465, 2006).
The delivered lung tissues of BALB/c mice which had not perform broncho-alveolar lavage was fixed for 24 h in 10% neutral-buffered formalin. After being embedded in paraffin, then made into 4-μm thickness sections, the tissue was stained with Periodic acid Schiff (PAS stain kit, T-K7308, IMEB, CA, USA) to determine the ratio of goblet cell in bronchiolar epithelial cell

For test [7] the test system is unchanged. Nature of the test: Level of IgE and OVA-specific IgE in blood serum (ELISA). Conditions: 30 mg/kg PO. As for the experimental part:
In order to confirm the inhibition effect of test samples prepared in Examples on the level of IgE and OVA-specific IgE in blood serum, following test was performed by the method disclosed in the literature (Kay, A. B., The New England Journal of Medicine, 344, pp 30-37, 2001).
The blood serum and bronchoalveolar lavage fluid (BALF) prepared in Experimental Example 1 was recovered to determine the level of IgE and OVA-specific IgE in blood serum.
The blood serum and bronchoalveolar lavage fluid (BALF) was added to 96-well plates (ELISA plate) and coated with 0.1M NaHCO3 buffer solution (pH 8.3) containing 20 μg/mlof OVA (Sigma, Mo., USA) at 4° C. overnight. After inhibiting nonspecific reaction using by PBS containing 1% bovine serum albumin, the serum for testing was diluted to 1:400 and reacted together for 2 hours at room temperature. After washing, the serum was reacted with diluted (×300) anti-mouse IgE monoclonal antibody (MCA419, Serotec, Oxford, UK) for 2 hours and with diluted (×4000) HRP-conjugated goat anti-rat IgG polyclonal A (STAR110P, Serotec, UK) for 1 hours at room temperature. After washing, the solution was stained with 3,3′,5,5′-tetramethylbenzidine (52-00-02, KPL) substrate and the reaction was stopped by 2N H2SO4 to determine the absorbance using by spectroscopy (Versamax, Molecular Devices, US) at 450 nm.

As for `CC(C)(O)c1ccccc1CC[C@@H](SCC1(CC(=O)O)CC1)c1cccc(/C=C/c2ccc3ccc(Cl)cc3n2)c1` [M30, Montelukast], the Inflammation score in test [1] came to 1.25 ± 0.13. Also, the total IgE in blood serum in test [2] worked out at 1.82 ± 0.4 µg/mL. Besides, the “Penh Value” in test [3] (methacholine 0 mg/Ml) is listed as 0.49 ± 0.04. Moreover, the “Penh Value” in test [3] (methacholine 12.5 mg/Ml) is recorded as 1.54 ± 0.20. Besides, the “Penh Value” in test [3] (methacholine 25 mg/Ml) is reported as 1.98 ± 0.37. For the same compound, in test [3] (methacholine 50 mg/Ml), the “Penh Value” worked out at 2.51 ± 0.36. Besides, in test [4], the IL-1β level was determined as 187.03 ± 47.17 pg/mL, the IL-4 level was found to be 32.60 ± 4.53 pg/mL, the IL-5 level worked out at 69.74 ± 7.17 pg/mL and the IL-13 level turned out to be 25.93 ± 4.13 pg/mL. In addition, in test [5], the No. of eosinolphil is given as 52.03 ± 4.06 10^3 cells/mouse and the “No. of inflammatory cells” value is on record as 106.67 ± 6.48 10^3 cells/mouse. Also, the “PAS + cells/bronchiole” value in test [6] came to 39.21 ± 2.34%. In addition, the “level of IgE in serum” value in test [7] turned out to be 4.76 ± 0.73 µg/mL. Besides, the “level of OVA-specific IgE” value in test [7] (blood serum) came out at 0.09 ± 0.02 µg/mL.

The values above are taken from patent US9675658B2, “Method of treating inflammation, allergy and asthma with a purified extract (ATC2) isolated from Pseudolysimachion rotundam var. subintegrum containing abundant amount of active ingredient” (YUNGJIN PHARMACEUTICAL CO., LTD, priority 2012, dated 2017).
